In publication PMC3517478 (BMC Neurology, 2012):
Where a chain is given by its changes, count along the chain named. “And” between values parts separate entries of the source, which are not always exact repeats. Equal values may be shown once.

Columns and labels:
[1] = target: T1, human α1S267I-GlyR expressed in HEK 293 cells (Homo sapiens, UniProt P23415, S295I); assay: Whole-cell patch-clamp, positive allosteric modulation of glycine (EC20) induced currents; assay type: cell-based; design: expressed in transfected cells; host or cells: HEK 293 (transient, electroporation; pcDNA1amp vector); settings: S267I
T1 sequence (P23415 29-457 S295I): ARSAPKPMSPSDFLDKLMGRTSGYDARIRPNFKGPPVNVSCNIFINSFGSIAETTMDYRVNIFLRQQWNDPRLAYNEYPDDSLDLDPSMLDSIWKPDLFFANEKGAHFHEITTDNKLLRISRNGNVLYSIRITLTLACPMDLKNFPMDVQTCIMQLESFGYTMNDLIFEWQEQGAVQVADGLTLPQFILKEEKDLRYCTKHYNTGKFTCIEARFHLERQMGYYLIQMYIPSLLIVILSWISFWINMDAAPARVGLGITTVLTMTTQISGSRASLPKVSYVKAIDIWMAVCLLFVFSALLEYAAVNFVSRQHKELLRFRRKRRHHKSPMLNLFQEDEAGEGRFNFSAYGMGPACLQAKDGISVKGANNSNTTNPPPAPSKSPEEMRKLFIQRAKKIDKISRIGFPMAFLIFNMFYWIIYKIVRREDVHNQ
Method: (§1) Drug-containing vials were vigorously vortexed for 30min.
(§2) A new cell was used for each protocol and at least four different experiments were performed for each condition. The concentration of the diluent EtOH corresponding to the highest drug concentration used was 17150 μM.
(§3) Currents were filtered at 2 kHz.
Currents were normalized to their own maximum response.

[2] = target: T1, human α1S267I-GlyR expressed in HEK 293 cells; assay: Whole-cell patch-clamp, direct activation in the absence of glycine; assay type: cell-based; design: expressed in transfected cells; host or cells: HEK 293 (transient, electroporation; pcDNA1amp vector); settings: S267I, 0.01-1000 μM
Method: as §1, §2, §3

[3] = target: T2, human α1R271Q-GlyR expressed in HEK 293 cells (Homo sapiens, UniProt P23415, R299Q); assay: as above; assay type: cell-based; design: expressed in transfected cells; host or cells: HEK 293 (transient, electroporation; pcDNA1amp vector); settings: R271Q, 0.01-1000 μM
T2 sequence (P23415 29-457 R299Q): T1 sequence (P23415 29-457 S295I) with I267S, R271Q
Method: as §1, §2, §3

[4] = target: T3, human α1R271K-GlyR expressed in HEK 293 cells (Homo sapiens, UniProt P23415, R299K); assay: as above; assay type: cell-based; design: expressed in transfected cells; host or cells: HEK 293 (transient, electroporation; pcDNA1amp vector); settings: R271K
T3 sequence (P23415 29-457 R299K): T1 sequence (P23415 29-457 S295I) with I267S, R271K
Method: as §1, §2, §3

[5] = target: T4, human α1R271L-GlyR expressed in HEK 293 cells (Homo sapiens, UniProt P23415, R299L); assay: as above; assay type: cell-based; design: expressed in transfected cells; host or cells: HEK 293 (transient, electroporation; pcDNA1amp vector); settings: R271L, 0.01-1000 μM
T4 sequence (P23415 29-457 R299L): T1 sequence (P23415 29-457 S295I) with I267S, R271L
Method: as §1, §2, §3

[6] = system: α1β glycine receptors (wild-type); design: method as in earlier work; settings: heterologously expressed α1β wild-type (WT) glycine receptors; cited from earlier work
[7] = system: rat alpha 1 GlyR; settings: rat alpha 1 GlyR in HEK293; cited from earlier work
[8] = system: WT glycine receptor; settings: on cell mode, 4 s drug application; cited from earlier work
[9] = system: human alpha1 glycine receptor; settings: human alpha1 glycine receptors in HEK293; cited from earlier work

Compound: 4-chloro-2,6-dimethylphenol [4-chloropropofol]
- positive allosteric modulation nH ± SEM ([1]; EC20 glycine 30 μM): 0.7 ± 0.3
- EC50 ([1]; co-applied with sub-saturating (EC20) glycine 30 μM, read-out: positive allosteric modulation EC50 ± SEM): 55 µM and 55.1 µM
- positive allosteric modulation, potentiation [% of peak current amplitude] ± SEM ([1]; maximal positive allosteric modulation, EC20 glycine 30 μM): 128 ± 14%
- direct activation [2]: completely insensitive
- direct activation [3]: only a marginal direct activation
- direct activation nH [4]: 0.41 ± 0.15
- mean maximal activation (direct) [4]: 77.2 ± 4.2%
- EC50 ([4]; 0.01-1000 μM, n = 5): 16.4 ± 22.3 µM
- direct activation [5]: completely insensitive
- potency relative to propofol in enhancing glycine induced currents [6]: ~1000 fold

Compound: NCC(=O)O [glycine]
- Hill slope nH [7]: 3.3
- rise time [8]: 0.4 ms
- Hill slope nH [9]: 2.4
